Measurements reported in patent US10877036B2, “Biosensor based on Gβγ-interacting proteins to monitor G-protein activation” (priority 2014, dated 2020).
Positions count from the first letter of the chain named. Starred links: 1 amine or outer side, 2 acyl side, 3 side chain; linkers in the order of their positions; H or OH if unused. Positions of bridges follow the written chain, without caps; N, C: chain ends. Non-standard residues stand in square brackets, D forms with d. Residues, ends and D or L forms follow the SMILES beside them. *: point of attachment. Leu(3R-OH,Nα-propionyl) = CCC(=O)N[C@H](C(=O)*)[C@H](O)C(C)C; X1 = CC(C)[C@@H](O[*:3])[C@H](N[*:1])C(=O)[*:2]; NMeT = CN[C@H](C(=O)O)[C@@H](C)O; dPhLac = O=C(O)[C@H](O)Cc1ccccc1; NMeA = CN[C@@H](C)C(=O)O; NMeDha = C=C(NC)C(=O)O

How the values were obtained:
Gα13 = biological target: T1, Gα13 (Homo sapiens, UniProt Q14344); assay: Ubo-Qic selectivity, TPαR-mediated G-protein activation (BRET biosensor); format: cell-based; conditions: U-46619 100 nM, FIG. 5C
T1 construct: host or cells: HEK293
T1 sequence (Q14344 1-377): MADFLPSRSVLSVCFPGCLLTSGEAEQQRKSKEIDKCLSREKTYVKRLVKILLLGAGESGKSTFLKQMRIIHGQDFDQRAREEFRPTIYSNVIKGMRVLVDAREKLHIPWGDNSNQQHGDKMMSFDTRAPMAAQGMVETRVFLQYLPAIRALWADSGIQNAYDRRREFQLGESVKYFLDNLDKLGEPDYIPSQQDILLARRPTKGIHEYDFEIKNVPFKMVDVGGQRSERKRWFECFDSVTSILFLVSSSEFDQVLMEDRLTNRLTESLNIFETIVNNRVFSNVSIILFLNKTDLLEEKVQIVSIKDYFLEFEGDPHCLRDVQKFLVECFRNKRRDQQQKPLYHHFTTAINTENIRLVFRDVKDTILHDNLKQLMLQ
Procedure: (§1) BRET assays in living cells. Cells seeded in 96-well plates were washed twice with Phosphate Buffered Saline (PBS), followed by Tyrode buffer addition (composition: 137 mM NaCl, 0.9 mM KCl, 1 mM MgCl2, 11.9 mM NaHCO3, 3.6 mM NaH2PO4, 25 mM HEPES, 5.5 mM Glucose and 1 mM CaCl2, pH 7.4). The cells were then treated with the different ligands or vehicle for the indicated times. The Rluc substrate, coelenterazine 400a, was added at a final concentration of 2.5 μM and cells were further incubated for an additional 5 minutes. BRET values were then collected using a Mithras™ LB940 Multimode Microplate Reader or a TRISTAR® LB942 Multimode Microplate Reader, equipped with the following filters: 400 nm±70 nm (energy donor) and 515 nm±20 nm (energy acceptor). BRET values were determined by calculating the ratio of the light emitted by GFP (515 nm) over the light emitted by the Rluc (400 nm). To determine the % of activation (Stim as % of basal), BRET values obtained for the agonist treated cells where expressed as a percentage of the BRET values obtained with the corresponding cells treated with vehicle.
(§2) G-protein inhibitors. BRET assays were performed as described previously, except that cells were pre-treated overnight at 37° C. with 100 ng/ml of pertussis toxin, or, for 20 minutes at 37° C. with 100 nM of Ubo-Qic.

Gα15/16 = biological target: T2, Gα15/16 (Homo sapiens, UniProt P30679); assay: as above; format: cell-based; conditions: U-46619 100 nM, FIG. 5C
T2 construct: host or cells: HEK293
T2 sequence (P30679 1-374): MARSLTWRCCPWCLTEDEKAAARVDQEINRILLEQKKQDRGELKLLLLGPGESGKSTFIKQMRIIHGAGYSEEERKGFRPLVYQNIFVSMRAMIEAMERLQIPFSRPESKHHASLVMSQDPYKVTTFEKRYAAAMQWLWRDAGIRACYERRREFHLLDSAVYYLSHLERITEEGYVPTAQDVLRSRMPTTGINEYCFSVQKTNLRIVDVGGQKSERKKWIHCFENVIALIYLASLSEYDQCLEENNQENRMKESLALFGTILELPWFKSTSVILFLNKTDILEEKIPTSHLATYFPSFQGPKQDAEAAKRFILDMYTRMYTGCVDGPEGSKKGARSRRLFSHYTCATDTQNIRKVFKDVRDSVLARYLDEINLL
Procedure: as §1, §2

Gα12 = biological target: T3, Gα12 (Homo sapiens, UniProt Q03113); assay: as above; format: cell-based; conditions: U-46619 100 nM, FIG. 5C
T3 construct: host or cells: HEK293
T3 sequence (Q03113 1-381): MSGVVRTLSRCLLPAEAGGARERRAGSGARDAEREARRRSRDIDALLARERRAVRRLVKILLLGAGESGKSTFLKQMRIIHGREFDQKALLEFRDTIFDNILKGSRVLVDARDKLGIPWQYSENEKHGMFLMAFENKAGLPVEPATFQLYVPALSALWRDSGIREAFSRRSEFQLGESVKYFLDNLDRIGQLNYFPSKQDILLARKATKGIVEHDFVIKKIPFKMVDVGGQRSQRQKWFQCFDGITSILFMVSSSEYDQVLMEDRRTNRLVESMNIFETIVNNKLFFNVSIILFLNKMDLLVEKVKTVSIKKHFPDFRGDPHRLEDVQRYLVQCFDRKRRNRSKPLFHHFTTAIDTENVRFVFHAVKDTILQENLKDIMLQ
Procedure: as §1, §2

[1] = test system: Gαq substituted at position 67 (Y67C, Y67G, Y67S & Y67L); assay: Ubo-Qic sensitivity of the activation of mutant Gαq (BRET biosensor); format: cell-based, human; conditions: FIG. 5D
From the text: (§3) Expression vectors: Receptors and G-proteins. The plasmid encoding AT1 R was a generous gift from Stéphane Laporte (McGill University, Montréal, Canada). Gαq, Gα11, Gα12, Gα13, Gα14, Gα15/16, GαoA, GαoB, Gαz, Gαs, Gαi1, Gαi2, Gαi3, Gβ1, TPαR, D2R and α1BAR were obtained from the cDNA Resource Center (cDNA.org). Plasmids encoding mutant Gα proteins including GαqG66K, GαqY67C and GαqF75G, were obtained by site-directed mutagenesis (PCR overlap) of the Gαq wild-type protein coding sequence using the primers depicted in Table I. The PCR fragments were digested with Acc65I+XhoI restriction enzymes and cloned in pCDNA3.1 Zeo(+) (from Invitrogen®, Carlsbad, Calif.) digested Acc65I+XhoI. […]
(§4) BRET assays in living cells. […] BRET values were then collected using a Mithras™ LB940 Multimode Microplate Reader or a TRISTAR® LB942 Multimode Microplate Reader, equipped with the following filters: 400 nm±70 nm (energy donor) and 515 nm±20 nm (energy acceptor). BRET values were determined by calculating the ratio of the light emitted by GFP (515 nm) over the light emitted by the Rluc (400 nm). To determine the % of activation (Stim as % of basal), BRET values obtained for the agonist treated cells where expressed as a percentage of the BRET values obtained with the corresponding cells treated with vehicle. […]

Gαq = biological target: T4, Gαq (Homo sapiens, UniProt P50148); assay: G-protein inhibitor pre-treatment, TPαR/Gαq BRET biosensor response; format: cell-based; conditions: agonist U-46619, 100 nM Ubo-Qic for 20 minutes or 100 ng/ml pertussis toxin overnight, FIG. 5A
T4 construct: host or cells: HEK293
T4 sequence (P50148 1-359): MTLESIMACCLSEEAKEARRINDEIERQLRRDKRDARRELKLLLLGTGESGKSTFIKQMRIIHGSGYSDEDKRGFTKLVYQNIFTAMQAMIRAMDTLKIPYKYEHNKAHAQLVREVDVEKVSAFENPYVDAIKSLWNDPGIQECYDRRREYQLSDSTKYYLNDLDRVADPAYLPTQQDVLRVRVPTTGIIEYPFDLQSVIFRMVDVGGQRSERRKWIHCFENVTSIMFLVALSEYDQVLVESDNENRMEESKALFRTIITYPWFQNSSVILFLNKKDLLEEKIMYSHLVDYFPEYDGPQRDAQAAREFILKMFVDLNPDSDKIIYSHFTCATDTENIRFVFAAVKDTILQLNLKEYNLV
Procedure: as §1, §2

GαqF75G = biological target: T5, GαqF75G (Homo sapiens, UniProt P50148, F75G); assay: Ubo-Qic sensitivity of the activation of mutant Gαq (BRET biosensor); format: cell-based; conditions: Gαq Phe75 to glycine; FIG. 5D
T5 construct: expressed in transfected cells; host or cells: HEK293
T5 sequence (P50148 1-359 F75G): T4 sequence (P50148 1-359) with F75G
From the text: as §3, §4

Gαi1 = biological target: T6, Gαi1 (Homo sapiens, UniProt P63096); assay: G-protein inhibitor pre-treatment, D2R/Gαi1 BRET biosensor response; format: cell-based; conditions: D2R/Gαi1, agonist rotigotine; 100 nM Ubo-Qic for 20 minutes or 100 ng/ml pertussis toxin overnight; FIG. 5B
T6 construct: host or cells: HEK293
T6 sequence (P63096 whole entry): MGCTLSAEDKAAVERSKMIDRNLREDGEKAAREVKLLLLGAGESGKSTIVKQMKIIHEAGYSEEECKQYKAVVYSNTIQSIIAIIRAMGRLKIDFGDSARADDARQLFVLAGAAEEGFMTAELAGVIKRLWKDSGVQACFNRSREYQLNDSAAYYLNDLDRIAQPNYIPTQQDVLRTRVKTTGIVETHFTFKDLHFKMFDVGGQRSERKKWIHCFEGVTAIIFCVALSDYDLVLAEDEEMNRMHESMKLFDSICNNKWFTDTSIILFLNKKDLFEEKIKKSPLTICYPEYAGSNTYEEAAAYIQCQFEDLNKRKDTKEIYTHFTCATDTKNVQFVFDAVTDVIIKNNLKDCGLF
Procedure: as §1, §2

[2] = biological target: T7, angiotensin II type 1 receptor (AT1R) (Homo sapiens, UniProt P30556); assay: Ligand profiling with the βγIP-based BRET biosensor, AT1R with Gαq or Gα12; format: cell-based; conditions: Gα12 versus Gαq, FIG. 8C
T7 construct: host or cells: HEK293
T7 sequence (P30556 1-359): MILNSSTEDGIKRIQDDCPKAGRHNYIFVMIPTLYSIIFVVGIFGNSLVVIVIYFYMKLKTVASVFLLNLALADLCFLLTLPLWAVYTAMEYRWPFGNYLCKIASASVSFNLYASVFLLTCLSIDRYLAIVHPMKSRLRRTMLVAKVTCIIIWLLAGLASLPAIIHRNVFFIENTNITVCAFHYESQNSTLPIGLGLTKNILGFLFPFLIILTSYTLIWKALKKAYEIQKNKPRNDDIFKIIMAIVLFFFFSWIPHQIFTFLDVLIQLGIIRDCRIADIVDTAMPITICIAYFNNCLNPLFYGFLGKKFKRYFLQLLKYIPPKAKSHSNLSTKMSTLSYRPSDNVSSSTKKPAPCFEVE
Procedure: Cell culture and transfections. Human embryonic kidney 293 (HEK293) cells were maintained in Dulbecco's Modified Eagle's Medium (DMEM) supplemented with 10% fetal bovine serum, 100 unit/ml penicillin/streptomycin at 37° C. in a humidified atmosphere with 5% CO2. Two days before the experiments, HEK293 cells were transfected with the indicated plasmids using poly-ethylenimine 25-kDa linear (PEI) as a transfecting agent (at a ratio of 3 to 1, PEI/DNA) (Hamdan, Rochdi et al. 2007), and then directly seeded in 96-well plates pre-treated with poly-L-ornithine hydrobromide or Poly-D-Lysine, at a density of 35,000 cells per well (for BRET and PCA assays in living cells), or 6-well plates at a density of 1,000,000 cells per well (for BRET assays on membrane preparations).
BRET assays in living cells. […] BRET values were then collected using a Mithras™ LB940 Multimode Microplate Reader or a TRISTAR® LB942 Multimode Microplate Reader, equipped with the following filters: 400 nm±70 nm (energy donor) and 515 nm±20 nm (energy acceptor). BRET values were determined by calculating the ratio of the light emitted by GFP (515 nm) over the light emitted by the Rluc (400 nm). To determine the % of activation (Stim as % of basal), BRET values obtained for the agonist treated cells where expressed as a percentage of the BRET values obtained with the corresponding cells treated with vehicle.

Compound | sensitivity of G-protein activation to the inhibitor (Gα13) | sensitivity of G-protein activation to the inhibitor (Gα15/16) | sensitivity of G-protein activation to the inhibitor (Gα12) | sensitivity of mutant Gαq activation to the inhibitor [1] | effect of pre-treatment on the BRET response following agonist stimulation (Gαq) | inhibition of mutant Gαq activation (GαqF75G) | effect of pre-treatment on the biosensor BRET response after agonist incubation (Gαi1) | efficacy of G-protein activation relative to angiotensin II response [2]
C=C1C(=O)N[C@@H](C)C(=O)N(C)[C@@H](C)C(=O)N[C@@H]([C@H](OC(=O)[C@@H](NC(=O)CC)[C@H](O)C(C)C)C(C)C)C(=O)N(C)[C@@H]([C@@H](C)OC)C(=O)O[C@H](C(C)C)[C@H](NC(C)=O)C(=O)O[C@H](Cc2ccccc2)C(=O)N1C [Ubo-Qic, L-threonine,(3R)-N-acetyl-3-hydroxy-L-leucyl-(aR)-a-hydroxybenzenepropanoyl-2,3-idehydro-N-methylalanyl-L-alanyl-N-methyl-L-alanyl-(3R)-3-[[(2S,3R)-3-hydroxy-4-methyl-1-oxo-2-[(1-oxopropyl)amino]pentyl]oxy]-L-leucyl-N,O-dimethyl-,(7→1)-lactone (9CI)] (Ac-[X1][dPhLac][NMeDha]A[NMeA][X1](Leu(3R-OH,Nα-propionyl))[NMeT](Me); ester 1-C) | insensitive | insensitive | insensitive | resistance | completely abolished | partial | no detectable effect | –
[Asp^1, Val^5, Gly^8]-AngII [DVG] | – | – | – | – | – | – | – | better efficacy for Gα12 activation than Gαq
